From US6462081B1, “5-thia-ω-substituted phenyl-prostaglandin E derivatives, process for producing the same and drugs containing the same as the active ingredient” (Ono Pharmaceutical Co., Ltd., priority 1998, dated 2002)

Legend:
mouse EP4 = molecular target: T1, mouse EP4 (Mus musculus, UniProt P32240); experiment: Binding assay using CHO cell membrane expressing prostanoid receptor subtype, [3H]-PGE2 competition; details: CHO cell membrane fraction, 2.5 nM [3H]-PGE2, 1 hour at room temperature, pH6.0
T1 construct: expressed in transfected cells; host or cells: CHO cells, membrane fraction
Experimental: (§1) For example, in a standard laboratory test, such effects of the compound of the present invention were confirmed by binding assay using cell expressing the prostanoid receptor subtypes. (i) Binding assay using cell expressing the prostanoid receptor subtypes The preparation of membrane fraction was carried out according to the method of Sugimoto et al (J. Biol. Chem., 267, 6463-6466 (1992)), using CHO cell expressing prostanoid receptor subtype (mouse EP1, EP2, EP3, and EP4, and human IP).
(§2) The reaction solution (200 μl) containing membrane fraction (0.5 mg/ml), [^3H]-PGE2 was incubated for 1 hour at room temperature. The reaction was terminated by addition of 3 ml of ice-cold buffer. The mixture was rapidly filtered under reduced pressure through a glass filter (GF/B). The radioactivity associated with the filter was measured by liquid scintillation counter.
(§3) Kd and Bmax values were determined from Scatchard plots [Ann. N.Y. Acad. Sci., 51, 660 (1949)]. Non-specific binding was calculated as the amount bound in the presence of an excess (2.5 μM) of unlabeled PGE2. In the experiment for competition of specific [^3H]-PGE2 binding by the compounds of the present invention, [^3H]-PGE2 was added at a concentration of 2.5 nM and the compound of the present invention was added at various concentrations. The following buffer was used in all reactions. Buffer: 10 mM potassium phosphate (pH6.0), 1 mM EDTA, 10 mM MgCl2, 0.1 M NaCl
(§4) The dissociation constant Ki (μM) of each compound was calculated by the following equation.

EP3α = molecular target: T2, EP3α (Mus musculus, UniProt P30557); experiment: as above; details: CHO cell membrane fraction, 2.5 nM [3H]-PGE2, 1 hour at room temperature, pH6.0
T2 construct: expressed in transfected cells; host or cells: CHO cells, membrane fraction
T2 sequence (P30557 1-365): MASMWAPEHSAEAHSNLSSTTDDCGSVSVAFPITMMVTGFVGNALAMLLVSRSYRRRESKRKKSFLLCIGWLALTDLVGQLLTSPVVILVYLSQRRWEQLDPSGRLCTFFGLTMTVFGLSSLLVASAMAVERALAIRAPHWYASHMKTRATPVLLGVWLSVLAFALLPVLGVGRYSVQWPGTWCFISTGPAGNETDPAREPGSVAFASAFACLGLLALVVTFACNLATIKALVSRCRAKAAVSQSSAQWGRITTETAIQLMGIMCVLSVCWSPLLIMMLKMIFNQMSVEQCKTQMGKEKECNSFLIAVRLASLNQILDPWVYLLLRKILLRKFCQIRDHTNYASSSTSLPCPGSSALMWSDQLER
Experimental: as §1, §2, §3, §4

mouse EP1 = molecular target: T3, mouse EP1 (Mus musculus, UniProt P35375); experiment: as above; details: CHO cell membrane fraction, 2.5 nM [3H]-PGE2, 1 hour at room temperature, pH6.0
T3 construct: expressed in transfected cells; host or cells: CHO cells, membrane fraction
T3 sequence (P35375 1-405): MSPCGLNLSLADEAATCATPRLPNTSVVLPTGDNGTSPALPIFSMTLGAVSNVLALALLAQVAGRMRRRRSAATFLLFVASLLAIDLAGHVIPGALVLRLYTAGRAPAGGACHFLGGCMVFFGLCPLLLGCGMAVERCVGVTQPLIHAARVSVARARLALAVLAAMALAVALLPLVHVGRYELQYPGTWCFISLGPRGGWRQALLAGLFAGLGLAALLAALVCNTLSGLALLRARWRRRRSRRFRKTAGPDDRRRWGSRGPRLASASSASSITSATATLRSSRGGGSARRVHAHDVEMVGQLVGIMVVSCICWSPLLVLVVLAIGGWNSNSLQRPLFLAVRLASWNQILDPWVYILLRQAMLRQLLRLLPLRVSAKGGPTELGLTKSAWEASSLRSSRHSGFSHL
Experimental: as §1, §2, §3, §4

rat = experiment: Toxicity: maximum tolerance dose by i.v. route in rat; assay type: in vivo
Experimental: The toxicity of the compounds of the formula (I) of the present invention is very low and therefore, it is confirmed that these compounds are safe for use as medicine. For example, the maximum tolerance dose of the compound of Example 1 by i.v. route in rat was 30 mg/kg body weight or more.

T1 sequence (P32240 whole entry): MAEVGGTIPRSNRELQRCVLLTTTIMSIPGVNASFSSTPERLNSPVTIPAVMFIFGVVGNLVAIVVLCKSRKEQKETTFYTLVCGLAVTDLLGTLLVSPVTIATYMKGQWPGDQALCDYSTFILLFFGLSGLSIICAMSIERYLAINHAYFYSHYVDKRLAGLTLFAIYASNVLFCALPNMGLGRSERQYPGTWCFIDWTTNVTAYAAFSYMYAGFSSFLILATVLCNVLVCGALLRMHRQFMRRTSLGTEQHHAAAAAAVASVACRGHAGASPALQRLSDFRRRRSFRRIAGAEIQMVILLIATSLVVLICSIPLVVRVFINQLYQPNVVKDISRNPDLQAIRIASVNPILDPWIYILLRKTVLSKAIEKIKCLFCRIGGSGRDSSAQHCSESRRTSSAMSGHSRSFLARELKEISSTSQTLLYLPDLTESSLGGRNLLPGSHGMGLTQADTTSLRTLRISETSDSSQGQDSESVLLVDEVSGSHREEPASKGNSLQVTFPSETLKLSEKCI

| Compound | Ki (mouse EP4) | Ki (EP3α) | Ki (mouse EP1) | maximum tolerance dose (rat) |
| --- | --- | --- | --- | --- |
| Cc1cc(C[C@H](O)/C=C/[C@H]2[C@H](O)CC(=O)[C@@H]2CCSCCCC(=O)O)ccc1O [3 (1), (11α,13E,15α)-9-oxo-11,15-Dihydroxy-16-(3-methyl-4-hydroxyphenyl)-17,18,19,20-tetranor-5-thiaprost-13-enoic Acid] | 2.4 nM | 2900 nM | > 10000 nM |  |
| COCc1cccc(C[C@H](O)/C=C/[C@@H]2[C@@H](CCSCCCC(=O)O)[C@H](Cl)C[C@H]2O)c1 [3 (2), (9β,11α,13E,15α)-9-Chloro-11,15-dihydroxy-16-(3-methoxymethylphenyl)-17,18,19,20-tetranor-5-thiaprost-13-enoic Acid] | 7.9 nM | > 10000 nM | > 10000 nM |  |
| COCc1cccc(C[C@H](O)/C=C/[C@@H]2[C@@H](CCSCCCC(=O)O)[C@H](F)C[C@H]2O)c1 [3 (3), (9β,11α,13E,15α)-9-Fluoro-11,15-dihydroxy-16-(3-methoxymethylphenyl)-17,18,19,20-tetranor-5-thiaprost-13-enoic Acid] | 18 nM | 1500 nM | > 10000 nM |  |
| COCc1cccc(C[C@H](O)/C=C/[C@H]2[C@H](O)CC(=O)[C@@H]2CCSCCCC(=O)OC)c1 [Example 1, (11α,13E,15α)-9-oxo-11,15-Dihydroxy-16-(3-methoxymethylphenyl)-17,18,19,20-tetranor-5-thiaprost-13-enoic Acid·Methyl Ester] |  |  |  | ≥ 30 mg/kg body weight |

Further lines, with some results ahead:

| Ki (mouse EP4) | Ki (EP3α) | Ki (mouse EP1) | Compound | maximum tolerance dose (rat) |
| --- | --- | --- | --- | --- |
| 6.2 nM | 460 nM | > 10000 nM | COCc1cccc(C[C@H](O)CC[C@H]2[C@H](O)CC(=O)[C@@H]2CCSCCCC(=O)O)c1 [Example 6, (11α,15α)-9-oxo-11,15-Dihydroxy-16-(3-methoxymethylphenyl)-17,18,19,20-tetranor-5-thiaprostanoic Acid] |  |
| 15 nM | 570 nM | > 10000 nM | CCCOCc1cccc(C[C@H](O)/C=C/[C@H]2[C@H](O)CC(=O)[C@@H]2CCSCCCC(=O)O)c1 [3 (5), (11α,13E,15α)-9-oxo-11,15-Dihydroxy-16-(3-n-propyloxymethylphenyl)-17,18,19,20-tetranor-5-thiaprost-13-enoic Acid] |  |
| 10 nM | 500 nM | > 10000 nM | (11α,13E,15α)-9-oxo-11,15-Dihydroxy-16-(3-ethoxymethylphenyl)-17,18,19,20-tetranor-5-thiaprost-13-enoic Acid [3 (4)] |  |
| 3.8 nM | 840 nM | > 10000 nM | COCc1cccc(C[C@H](O)/C=C/[C@H]2[C@H](O)CC(=O)[C@@H]2CCSCCCC(=O)O)c1 [Example 3, (11α,13E,15α)-9-oxo-11,15-Dihydroxy-16-(3-methoxymethylphenyl)-17,18,19,20-tetranor-5-thiaprost-13-enoic Acid] |  |
